Results: ChEMBL document CHEMBL3045592, “Studies of O,O-dimethyl α-(2,4-dichlorophenoxyacetoxy)ethylphosphonate (HW02) as a new herbicide. 1. Synthesis and herbicidal activity of HW02 and analogues as novel inhibitors of pyruvate dehydrogenase complex” (J Agric Food Chem, 2011)

Experiments:
Medicago sativa [1] = assay: Post-emergence herbicidal activity against Medicago sativa (alfalfa) assessed as growth inhibition at 450 ai g/ha after 20 days by green house test; format: functional
Oryza sativa = assay: Inhibition of PDHc in Oryza sativa (rice) shoot mitochondria assessed as decrease in rate of NADH formation using sodium pyruvate as substrate at 0.1 microg/g preincubated for 25 min before substrate addition measured after 1 min by spectrophotometric assay
Xanthium strumarium [2] = assay: Post-emergence herbicidal activity against Xanthium strumarium (cocklebur) assessed as growth inhibition at 150 ai g/ha after 20 days by green house test; format: functional
Portulaca oleracea [3] = assay: Post-emergence herbicidal activity against Portulaca oleracea assessed as growth inhibition at 75 ai g/ha after 20 days by green house test; format: functional
Xanthium strumarium [4] = assay: Post-emergence herbicidal activity against Xanthium strumarium (cocklebur) assessed as growth inhibition at 18.75 ai g/ha after 20 days by green house test; format: functional
Eclipta prostrata [5] = assay: Post-emergence herbicidal activity against Eclipta prostrata assessed as growth inhibition at 300 ai g/ha after 20 days by green house test; format: functional
Echinochloa crus-galli [6] = assay: Post-emergence herbicidal activity against Echinochloa crus-galli (barnyard grass) assessed as growth inhibition at 75 ai g/ha after 20 days by green house test; format: functional
Eclipta prostrata [7] = assay: Post-emergence herbicidal activity against Eclipta prostrata assessed as growth inhibition at 450 ai g/ha after 20 days by green house test; format: functional
Portulaca oleracea [8] = assay: Post-emergence herbicidal activity against Portulaca oleracea assessed as growth inhibition at 300 ai g/ha after 20 days by green house test; format: functional
[9] = Toxicity against Triticum aestivum Yang Mai 1 (wheat) assessed as growth inhibition at 450 ai g/ha post-emergent application measured after 20 days by green house crop selectivity test; format: organism-based; details: Yang Mai 1, triticum aestivum, in vivo, read-out: GI
Amaranthus retroflexus = assay: Post-emergence herbicidal activity against Amaranthus retroflexus assessed as growth inhibition at 75 ai g/ha after 20 days by green house test; format: functional
[10] = test system: Brassica rapa subsp. oleifera; assay: Post-emergence herbicidal activity against Brassica rapa subsp. oleifera Si Yue Man assessed as growth inhibition at 75 ai g/ha after 20 days by green house test; format: functional
Echinochloa crus-galli [11] = assay: Post-emergence herbicidal activity against Echinochloa crus-galli (barnyard grass) assessed as growth inhibition at 37.5 ai g/ha after 20 days by green house test; format: functional
Portulaca oleracea [12] = assay: Post-emergence herbicidal activity against Portulaca oleracea assessed as growth inhibition at 450 ai g/ha after 20 days by green house test; format: functional
Eclipta prostrata [13] = assay: Post-emergence herbicidal activity against Eclipta prostrata assessed as growth inhibition at 150 ai g/ha after 20 days by green house test; format: functional
Cardamine hirsuta = assay: Post-emergence herbicidal activity against Cardamine hirsuta assessed as growth inhibition at 75 ai g/ha after 20 days by green house test; format: functional
Portulaca oleracea [14] = assay: Post-emergence herbicidal activity against Portulaca oleracea assessed as growth inhibition at 18.75 ai g/ha after 20 days by green house test; format: functional
[15] = Toxicity against Triticum aestivum Yang Mai 1 (wheat) assessed as growth inhibition at 600 ai g/ha post-emergent application measured after 20 days by green house crop selectivity test; format: organism-based; details: Yang Mai 1, triticum aestivum, in vivo, read-out: GI
[16] = Toxicity against Zea mays Gao you 1 (maize) assessed as growth inhibition at 450 ai g/ha post-emergent application measured after 20 days by green house crop selectivity test; format: organism-based; details: Gao you 1, zea mays, in vivo, read-out: GI
Echinochloa crus-galli [17] = assay: Post-emergence herbicidal activity against Echinochloa crus-galli (barnyard grass) assessed as growth inhibition at 150 ai g/ha after 20 days by green house test; format: functional
[18] = test system: Brassica rapa subsp. oleifera; assay: Post-emergence herbicidal activity against Brassica rapa subsp. oleifera Si Yue Man assessed as growth inhibition at 225 ai g/ha after 20 days by green house test; format: functional
Daucus carota = assay: Post-emergence herbicidal activity against Daucus carota (carrot) assessed as growth inhibition at 300 ai g/ha after 20 days by green house test; format: functional
Medicago sativa [19] = assay: Post-emergence herbicidal activity against Medicago sativa (alfalfa) assessed as growth inhibition at 225 ai g/ha after 20 days by green house test; format: functional
Xanthium strumarium [20] = assay: Post-emergence herbicidal activity against Xanthium strumarium (cocklebur) assessed as growth inhibition at 300 ai g/ha after 20 days by green house test; format: functional
Xanthium strumarium [21] = assay: Post-emergence herbicidal activity against Xanthium strumarium (cocklebur) assessed as growth inhibition at 75 ai g/ha after 20 days by green house test; format: functional
Digitaria sanguinalis = assay: Post-emergence herbicidal activity against Digitaria sanguinalis (hairy crabgrass) assessed as growth inhibition at 18.75 ai g/ha after 20 days by green house test; format: functional
Portulaca oleracea [22] = assay: Post-emergence herbicidal activity against Portulaca oleracea assessed as growth inhibition at 225 ai g/ha after 20 days by green house test; format: functional
[23] = Toxicity against Zea mays Gao you 1 (maize) assessed as growth inhibition at 150 ai g/ha post-emergent application measured after 20 days by green house crop selectivity test; format: organism-based; details: Gao you 1, zea mays, in vivo, read-out: GI
Portulaca oleracea [24] = assay: Post-emergence herbicidal activity against Portulaca oleracea assessed as growth inhibition at 150 ai g/ha after 20 days by green house test; format: functional

With COP(=O)(OC)C(C)OC(=O)COc1ccc(Cl)cc1Cl (centres undefined) [CLACYFOS] the “growth inhibition (GI)” value (Medicago sativa [1]) was 100%, the inhibition (Oryza sativa) was 3.4% and the “growth inhibition (GI)” value (Xanthium strumarium [2]) was 90%. The “growth inhibition (GI)” value (Portulaca oleracea [3]) was 75%, the “growth inhibition (GI)” value (Xanthium strumarium [4]) was 50% and the “growth inhibition (GI)” value (Eclipta prostrata [5]) was 100%. For the same compound, the “growth inhibition (GI)” value (Echinochloa crus-galli [6]) was 0%, the “growth inhibition (GI)” value (Eclipta prostrata [7]) was 100% and the “growth inhibition (GI)” value (Portulaca oleracea [8]) was 95%. For the same compound, the inhibition at 480 h [9] was 0%, the “growth inhibition (GI)” value (Amaranthus retroflexus) was 90% and the “growth inhibition (GI)” value [10] was 92.5%. For the same compound, the “growth inhibition (GI)” value (Echinochloa crus-galli [11]) was 0%, the “growth inhibition (GI)” value (Portulaca oleracea [12]) was 100% and the “growth inhibition (GI)” value (Eclipta prostrata [13]) was 90%. The “growth inhibition (GI)” value (Cardamine hirsuta) was 88%, the “growth inhibition (GI)” value (Portulaca oleracea [14]) was 50% and the inhibition at 480 h [15] was 0%. For the same compound, the inhibition at 480 h [16] was 0%, the “growth inhibition (GI)” value (Echinochloa crus-galli [17]) was 0% and the “growth inhibition (GI)” value [18] was 100%. For the same compound, the “growth inhibition (GI)” value (Daucus carota) was 100%, the “growth inhibition (GI)” value (Medicago sativa [19]) was 95% and the “growth inhibition (GI)” value (Xanthium strumarium [20]) was 100%. The “growth inhibition (GI)” value (Xanthium strumarium [21]) was 72%, the “growth inhibition (GI)” value (Digitaria sanguinalis) was 0% and the “growth inhibition (GI)” value (Portulaca oleracea [22]) was 90%. For the same compound, the inhibition at 480 h [23] was 0% and the “growth inhibition (GI)” value (Portulaca oleracea [24]) was 85%.
